Measurements reported in patent EP0456229A2, “Arylsulfatase” (Bristol-Myers Squibb Company, priority 1990, dated 1991).

Legend:
Es-1 sulfatase [1] = experiment: Substrate specificity: hydrolysis of etoposide derivatives (TLC); format: biochemical, Streptomyces griseorubiginosus S980-14; conditions: 0.6 u enzyme, 50 mM Tris-HCl pH 7.5, 37°C for 18 hours, silica gel TLC
Method: • (a) Optimum pH. The stock enzyme solution (0.6 u in 50 µl of 50 mM Tris-HCl, pH 7.5) was added to 100 µl each of the following buffers: 500 mM sodium acetate (pH 4.0-5.5), 500 mM Tris-maleate (pH 5.5-7.5), 500 mM Tris-HCl (pH 7.5-9.0), and 500 mM glycine-NaoH (pH 9.0-10.0). The substrate, p-nitrophenylsulfate, was dissolved in each of the above buffers (1 mg/ml). The enzyme-buffer solution (150 µl) was mixed with 50 µl of the substrate solution in the same buffer as the enzyme, and the mixture was incubated for 30 minutes at 37°C. The reaction was quenched by addition of 100 µl of 0.2 N sodium hydroxide solution. The enzyme activity in each buffer was determined spectrophotometrically by UV at 415 nm. […] The stock enzyme solution was dialyzed against water to remove salts. The dialyzed solution (10 µl) was mixed with 40 µl of 50 mM Tris-HCl buffer (pH 7.5). An aliquot (10 µl) of this solution was mixed with 40 µl each of the buffer listed in (a) and incubated for 30 minutes at 30°C. To this solution (50 µl) were added 100 µl of 500 mM Tris-HCl (pH 9.0) and 50 µl of substrate in water (1 mg/ml), and the mixture was incubated at 37°C for 30 minutes to determine the residual enzyme activity. […] Enzyme (0.6 u) in 150 µl of 50 mM Tris-HCl (pH 8.5) was incubated with p-nitrophenylsulfate in the same buffer (1 mg/ml, 50 µl) for 30 minutes at various temperatures. […] Enzyme preparations (0.6 u) in 50 mM Tris-HCl (150 µl, pH 8.5) were incubated for 15 minutes at various temperatures and then cooled in an ice bath. p-Nitrophenylsulfate in the same buffer (1 mg/ml, 50 µl) was added to the enzyme solution, and the mixture was incubated for 30 minutes at 37°C. […] Fifty µl of enzyme solution (0.6 u in 50 mM Tris-HCl, pH 8.5), 80 µl of 50 mM Tris-HCl (pH 8.5), 50 µl of p-nitrophenyl sulfate (1 mg/ml in same buffer), and 20 µl of ion (10 mM) were mixed. The solution was incubated for 30 minutes at 37°C. p-Nitrophenol released was spectrophotometrically assayed by UV at 415 nm. […] The protocol used in (e) was followed with the exception that 1 mM of an enzyme inhibitor was used instead of a metal ion. […] The protocol used in (e) was followed, except that 5 mM of a salt was used instead of 10 mM of a metal ion. […] Four etoposide derivatives were tested as substrate for the sulfatase of the invention. The substrates are: etoposide 4'-sulfate (III), 2'',3''-di-O-acetyl-etoposide-4'-sulfate (IV), etoposide 2''-sulfate (V), and etoposide 3''-sulfate (VI). […] After 18 hours, 100 µl of methanol was added, and 100 µl of sample was analyzed on a silica gel TLC plate using a solvent system consisting of chloroform-methanol (10:1 v/v). […]

[2] = compared with etoposide; cited from earlier work
Es-1 sulfatase [3] = experiment: Substrate specificity: hydrolysis of BU-3285T (TLC, UV densitometry); format: biochemical, Streptomyces griseorubiginosus S980-14; conditions: 0.6 u Es-1 sulfatase, pH 8.5, 18 hours at 37°C, UV densitometry at 254 nm
Method: (§1) • (a) Optimum pH. The stock enzyme solution (0.6 u in 50 µl of 50 mM Tris-HCl, pH 7.5) was added to 100 µl each of the following buffers: 500 mM sodium acetate (pH 4.0-5.5), 500 mM Tris-maleate (pH 5.5-7.5), 500 mM Tris-HCl (pH 7.5-9.0), and 500 mM glycine-NaoH (pH 9.0-10.0). The substrate, p-nitrophenylsulfate, was dissolved in each of the above buffers (1 mg/ml). The enzyme-buffer solution (150 µl) was mixed with 50 µl of the substrate solution in the same buffer as the enzyme, and the mixture was incubated for 30 minutes at 37°C. The reaction was quenched by addition of 100 µl of 0.2 N sodium hydroxide solution. The enzyme activity in each buffer was determined spectrophotometrically by UV at 415 nm. […] The stock enzyme solution was dialyzed against water to remove salts. The dialyzed solution (10 µl) was mixed with 40 µl of 50 mM Tris-HCl buffer (pH 7.5). An aliquot (10 µl) of this solution was mixed with 40 µl each of the buffer listed in (a) and incubated for 30 minutes at 30°C. To this solution (50 µl) were added 100 µl of 500 mM Tris-HCl (pH 9.0) and 50 µl of substrate in water (1 mg/ml), and the mixture was incubated at 37°C for 30 minutes to determine the residual enzyme activity. […] After 18 hours, 100 µl of methanol was added, and 100 µl of sample was analyzed on a silica gel TLC plate using a solvent system consisting of chloroform-methanol (10:1 v/v). […]

Es-1 sulfatase [4] = experiment: Effect of ions / EDTA treatment and Ca2+ recovery of sulfatase activity; format: biochemical, Streptomyces griseorubiginosus S980-14
Method: • (a) Optimum pH. The stock enzyme solution (0.6 u in 50 µl of 50 mM Tris-HCl, pH 7.5) was added to 100 µl each of the following buffers: 500 mM sodium acetate (pH 4.0-5.5), 500 mM Tris-maleate (pH 5.5-7.5), 500 mM Tris-HCl (pH 7.5-9.0), and 500 mM glycine-NaoH (pH 9.0-10.0). The substrate, p-nitrophenylsulfate, was dissolved in each of the above buffers (1 mg/ml). The enzyme-buffer solution (150 µl) was mixed with 50 µl of the substrate solution in the same buffer as the enzyme, and the mixture was incubated for 30 minutes at 37°C. The reaction was quenched by addition of 100 µl of 0.2 N sodium hydroxide solution. The enzyme activity in each buffer was determined spectrophotometrically by UV at 415 nm. […] The stock enzyme solution was dialyzed against water to remove salts. The dialyzed solution (10 µl) was mixed with 40 µl of 50 mM Tris-HCl buffer (pH 7.5). An aliquot (10 µl) of this solution was mixed with 40 µl each of the buffer listed in (a) and incubated for 30 minutes at 30°C. To this solution (50 µl) were added 100 µl of 500 mM Tris-HCl (pH 9.0) and 50 µl of substrate in water (1 mg/ml), and the mixture was incubated at 37°C for 30 minutes to determine the residual enzyme activity. […] Enzyme (0.6 u) in 150 µl of 50 mM Tris-HCl (pH 8.5) was incubated with p-nitrophenylsulfate in the same buffer (1 mg/ml, 50 µl) for 30 minutes at various temperatures. […] Enzyme preparations (0.6 u) in 50 mM Tris-HCl (150 µl, pH 8.5) were incubated for 15 minutes at various temperatures and then cooled in an ice bath. p-Nitrophenylsulfate in the same buffer (1 mg/ml, 50 µl) was added to the enzyme solution, and the mixture was incubated for 30 minutes at 37°C. […] Fifty µl of enzyme solution (0.6 u in 50 mM Tris-HCl, pH 8.5), 80 µl of 50 mM Tris-HCl (pH 8.5), 50 µl of p-nitrophenyl sulfate (1 mg/ml in same buffer), and 20 µl of ion (10 mM) were mixed. […] After 18 hours, 100 µl of methanol was added, and 100 µl of sample was analyzed on a silica gel TLC plate using a solvent system consisting of chloroform-methanol (10:1 v/v). […]

Es-1 sulfatase [5] = experiment: Effect of salts on sulfatase activity; format: biochemical, Streptomyces griseorubiginosus S980-14; conditions: 5 mM of a salt, 30 minutes at 37°C, pH 8.5
Method: as §1

COc1cc([C@@H]2c3cc4c(cc3[C@@H](O[C@@H]3O[C@@H]5CO[C@@H](C)O[C@H]5[C@H](O)[C@H]3O)[C@H]3COC(=O)[C@H]23)OCO4)cc(OC)c1OS(=O)(=O)O [(III), etoposide 4'-sulfate]
substrate for the enzyme (Es-1 sulfatase [1]): are substrates
cytotoxicity [2]: much less cytotoxic than etoposide itself

COc1cc(C2c3cc4c(cc3C(OC3OC5COC(C)OC5C(OC(C)=O)C3OC(C)=O)C3COC(=O)C23)OCO4)cc(OC)c1OS(=O)(=O)O (centres unmarked) [(IV), 2'',3''-di-O-acetyl-etoposide-4'-sulfate]
substrate for the enzyme (Es-1 sulfatase [1]): are substrates

COc1cc(C2c3cc4c(cc3C(OC3OC5COC(C)OC5C(O)C3OS(=O)(=O)O)C3COC(=O)C23)OCO4)cc(OC)c1O (centres unmarked) [(V), etoposide 2''-sulfate]
substrate for the enzyme (Es-1 sulfatase [1]): are not

COc1cc(C2c3cc4c(cc3C(OC3OC5COC(C)OC5C(OS(=O)(=O)O)C3O)C3COC(=O)C23)OCO4)cc(OC)c1O (centres unmarked) [(VI), etoposide 3''-sulfate]
substrate for the enzyme (Es-1 sulfatase [1]): are not

CCCCC/C=C/C=C\C=C/C(O)C(C)C(C/C=C/C1OC(=O)C=CC1O)OS(=O)(=O)O (centres unmarked) [BU-3285T]
conversion to its desulfated derivative (Es-1 sulfatase [3]): approximately 70%

[Ca+2] [Ca⁺⁺]
sulfatase activity restored (Es-1 sulfatase [4]; addition of 1 mM of Ca⁺⁺ to the EDTA treated enzyme): 95%
sulfatase activity level (Es-1 sulfatase [4]; calcium ion concentrations over 1 mM added to EDTA treated enzyme): close to the original level

O=C(O)CN(CCN(CC(=O)O)CC(=O)O)CC(=O)O [EDTA]
sulfatase activity (Es-1 sulfatase [4]; enzyme treated with 10 mM of EDTA followed by dialysis against water at 4°C): disappeared

O=P(O)(O)O [phosphate ion]
sulfatase activity (effect of salts) (Es-1 sulfatase [5]): strongly inhibited

[Cl-].[Na+] [sodium chloride]
sulfatase activity (effect of salts) (Es-1 sulfatase [5]): strongly inhibited
